{"source": "patent US12331069B2", "about": "“DOT1L degraders and uses thereof” (DANA-FARBER CANCER INSTITUTE, INC., priority 2019, dated 2025)", "key": {"[1]": {"test_system": "Molm13 PA and Molm13 RE (acute myeloid leukemia) cells", "assay": "Relative cell growth by cell count, Molm13 PA and Molm13 RE cells", "assay_type": "cell-based", "conditions": "concentrations between 0 and 10 μM, after 10 days, effect with increased concentration", "procedure": "(§1) FIGS. 12A-12D show a Western blot of an assay where MOLM 13 cells were treated with exemplary DOT1L degraders and then the cell numbers were counted over time to confirm the cellular activity of the cells. FIGS. 12A-12D show the relative cell growth (%), based on a cell count of acute myeloid leukemia cells upon the treatment of Molm13 PA cells, Molm13 RE cells, and human leukemia (HL60; as negative control) cells with exemplary DOT1L degraders at various concentrations in for 10 days.\n(§2) Molm13 PA (acute myeloid leukemia), Molm13 RE (acute myeloid leukemia), and HL60 (human leukemia) cells were treated with exemplary thalidomide-based, DOT1L degrader compounds DOT1L-6, DOT1L-7, DOT1L-8, and RA190 at various concentrations between 0 and 10 μM. The relative cell growth of the Molm13 PA, Molm13 RE, and HL60 cells was measured to analyze cellular activity after 10 days."}, "RPN13": {"target": "RPN13 (Homo sapiens, UniProt Q16186)", "sequence (Q16186 whole entry)": "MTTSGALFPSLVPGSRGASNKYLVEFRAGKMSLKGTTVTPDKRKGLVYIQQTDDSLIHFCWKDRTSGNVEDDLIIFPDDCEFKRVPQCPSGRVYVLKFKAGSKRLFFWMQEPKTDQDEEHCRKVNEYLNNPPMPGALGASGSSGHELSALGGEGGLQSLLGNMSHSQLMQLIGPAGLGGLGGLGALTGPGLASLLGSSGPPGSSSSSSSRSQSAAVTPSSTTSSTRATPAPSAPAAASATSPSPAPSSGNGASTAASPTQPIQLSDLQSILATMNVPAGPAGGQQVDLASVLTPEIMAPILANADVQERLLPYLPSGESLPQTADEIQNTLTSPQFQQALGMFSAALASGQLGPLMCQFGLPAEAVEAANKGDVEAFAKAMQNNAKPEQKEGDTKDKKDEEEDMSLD", "assay": "Biochemical (alpha signal) assay for inhibitors that disrupt the binding of RPN13 with poly-ubiquitinylation", "conditions": "FIG. 9C", "from_the_text": "The assay was optimized based on concentrations of the target inhibitors, concentrations of compound RA190, and in view of the alpha signal. The conditions for the biochemical assay are recognized by those of ordinary skill in the art."}, "[2]": {"test_system": "HL60 (human leukemia) cells", "assay": "Relative cell growth by cell count, HL60 cells (negative control line)", "assay_type": "cell-based", "conditions": "concentrations between 0 and 10 μM, after 10 days, effect with increased concentration", "procedure": "as §1, §2"}}, "data": [{"smiles": "N[C@@H](Cc1ccccc1)C(=O)N1C/C(=C\\c2ccc(Cl)c(Cl)c2)C(=O)/C(=C/c2ccc(Cl)c(Cl)c2)C1", "note": "[RA190]", "values": [{"measurement": "Relative cell growth (based on cell count)", "setting": "[1]", "value": "reduced cell growth"}, {"measurement": "Disruption of the binding of RPN13 with poly-ubiquitinylation", "setting": "RPN13", "value": "can disrupt the binding"}, {"measurement": "Relative cell growth (based on cell count)", "setting": "[2]", "value": "reduced cell growth"}]}]}
